Data on six molecules can be found in patent publication US10681908B2, “Molecules having pesticidal utility, and intermediates, compositions, and processes, related thereto” (Dow AgroSciences LLC, priority 2016, dated 2020).

The mortality is the share of the test organisms that died.

Format in all cases: in vivo
Data set [1] concerns Beet Armyworm (Spodoptera exigua, LAPHEG). As to the kind of experiment: Bioassay on Beet Armyworm (BAW), 128-well diet tray assay. The following applies: 168 h, 50 μg/cm^2 on artificial diet, second instar larvae, five to seven days, 25° C., read-out: BAW % Control (or Mortality) rating. The method, boiled down: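 Mortality of second-instar larvae (one to five per well) was scored after five to seven days at 25 °C under 14:10 light-dark and averaged across eight wells. Each well's diet had received 50 μg/cm^2 test molecule from a 90:10 acetone-water solution, allowed to dry before infestation.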

The test system of data set [2] is Green Peach Aphid (Myzus persicae, MYZUPE). As to the kind of experiment: Bioassay on Green Peach Aphid (GPA), foliar spray on infested cabbage seedlings. The following applies: 72 h, 200 ppm foliar spray, three days, Abbott corrected % control, read-out: GPA % Control (or Mortality) rating. The method, then:
Example B: Bioassays on Green Peach Aphid (Myzus Persicae, MYZUPE) (“GPA”)
Certain molecules disclosed in this document were tested against GPA using procedures described in the following example. In the reporting of the results, the “GPA & YFM Rating Table” was used (See Table Section).
Cabbage seedlings grown in 3-inch pots, with 2-3 small (3-5 cm) true leaves, were used as test substrate. The seedlings were infested with 20-50 GPA (wingless adult and nymph stages) one day prior to chemical application. Four pots with individual seedlings were used for each treatment. Test molecules (2 mg) were dissolved in 2 mL of acetone/methanol (1:1) solvent, forming stock solutions of 1000 ppm test molecule. The stock solutions were diluted 5× with 0.025% Tween 20 in water to obtain the solution at 200 ppm test molecule. A hand-held aspirator-type sprayer was used for spraying a solution to both sides of […] leaves until runoff. Reference plants (solvent check) were sprayed with the diluent only containing 20% by volume of acetone/methanol (1:1) solvent. Treated plants were held in a holding room for three days at approximately 25° C. and ambient relative humidity (RH) prior to grading. Evaluation was conducted by counting the number of live aphids per plant under a microscope. Percent Control was measured by using Abbott's correction formula (W. S. Abbott, “A Method of Computing the Effectiveness of an Insecticide” J. Econ. Entomol. 18 (1925), pp. 265-267) as follows. Corrected % Control=100*(X−Y)/X • where • X=No. of live aphids on solvent check plants and • Y=No. of live aphids on treated plants

For data set [3], the system named is Yellow Fever Mosquito (Aedes aegypti, AEDSAE). The following applies: about 1 day-old larvae, 3 days, room temperature, scored on mortality. The essentials:
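Compounds from DMSO master plates (4000 ppm stock) diluted with 90:10 water:acetone, then about 1-day-old larvae in liver-powder water added. Held covered at room temperature for 3 days; each well scored for mortality.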

The test system of data set [4] is Cabbage Looper (Trichoplusia ni, TRIPNI). Nature of the data set: Bioassay on Cabbage Looper (CL), 128-well diet tray assay. The following applies: 168 h, 50 μg/cm^2 on artificial diet, second instar larvae, five to seven days, 25° C., read-out: CL % Control (or Mortality) rating. The essentials:
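Percent mortality, averaged over eight wells, scored after five to seven days at 25° C. under 14:10 light-dark. Each well held 1–5 second-instar larvae on artificial diet treated with 50 μg/cm^2 test molecule applied in 90:10 acetone-water and dried.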

Turning to `C[C@H](C[S+]([O-])CC(F)(F)F)NC(=O)c1ccc(/C(F)=C/C(c2cc(Cl)cc(Br)c2)C(F)(F)F)cc1C(F)(F)F` (stereo partly drawn) [F68, 4-((Z)-3-(3-Bromo-5-chlorophenyl)-1,4,4,4-tetrafluorobut-1-en-1-yl)-N-((2R)-1-((2,2,2-trifluoroethyl)sulfinyl)propan-2-yl)-2-(trifluoromethyl)benzamide], the mortality at 50 µg/cm2 in data set [1] and in data set [4] was 50 to 100% throughout. In addition, in data set [2], the mortality at 200 ppm lay in the range of 0 to 80%. Further, the “YFM % Control (or Mortality) rating” value in data set [3] is “A (80-100)”.
With `C[C@H](CS(=O)(=O)CC(F)(F)F)NC(=O)c1ccc(/C(F)=C/C(c2cc(Br)cc(Br)c2)C(F)(F)F)cc1C(F)(F)F` (stereo partly drawn) [F69, 4-((Z)-3-(3,5-Dibromophenyl)-1,4,4,4-tetrafluorobut-1-en-1-yl)-N—((R)-1-((2,2,2-trifluoroethyl)sulfonyl)propan-2-yl)-2-(trifluoromethyl)benzamide], the mortality at 50 µg/cm2 in data set [1] and in data set [4] was 50 to 100% throughout. Also, the mortality at 200 ppm in data set [2] was in the range of 0 to 80%. Further, in data set [3], the “YFM % Control (or Mortality) rating” value is “A (80-100)”.
Consider `C[C@H](CS(=O)(=O)CC(F)(F)F)NC(=O)c1ccc(/C(F)=C/C(c2cc(Cl)c(C(F)F)c(Cl)c2)C(F)(F)F)cc1C(F)(F)F` (stereo partly drawn) [F104], for which the mortality at 50 µg/cm2 in data set [1] and in data set [4] was 50 to 100% throughout. The mortality at 200 ppm in data set [2] worked out at 0%. Also, the “YFM % Control (or Mortality) rating” value in data set [3] is given as “A (80-100)”.
`C[C@H](C[S+]([O-])CCC#N)NC(=O)c1ccc(/C(F)=C/C(c2cc(Cl)c(Cl)c(Cl)c2)C(F)(F)F)cc1C(F)(F)F` (stereo partly drawn) [F122, N-((2R)-1-((2-Cyanoethyl)sulfinyl)propan-2-yl)-4-((Z)-1,4,4,4-tetrafluoro-3-(3,4,5-trichlorophenyl)but-1-en-1-yl)-2-(trifluoromethyl)benzamide]: the mortality at 50 µg/cm2 in data set [1] and in data set [4] was 50 to 100% each time. Besides, in data set [2], the mortality at 200 ppm fell in the range of 0 to 80%. Moreover, the “YFM % Control (or Mortality) rating” value in data set [3] is on record as “A (80-100)”.
In the case of `C[C@H](CS(=O)(=O)CCC#N)NC(=O)c1ccc(/C(F)=C/C(c2cc(Cl)c(Cl)c(Cl)c2)C(F)(F)F)cc1C(F)(F)F` (stereo partly drawn) [F123, N—((R)-1-((2-cyanoethyl)sulfonyl)propan-2-yl)-4-((Z)-1,4,4,4-tetrafluoro-3-(3,4,5-trichlorophenyl)but-1-en-1-yl)-2-(trifluoromethyl)benzamide], the mortality at 50 µg/cm2 in data set [1] and in data set [4] was 50 to 100% throughout. The mortality at 200 ppm in data set [2] is 0%. For the same molecule, in data set [3], the “YFM % Control (or Mortality) rating” value is given as “A (80-100)”.
For `C[C@H](CS(=O)(=O)CC(F)(F)F)NC(=O)c1ccc(/C(F)=C/C(c2ccc(F)c(Cl)c2)C(F)(F)F)cc1C(F)(F)F` (stereo partly drawn) [PF2, 4-((Z)-3-(3-Chloro-4-fluorophenyl)-1,4,4,4-tetrafluorobut-1-en-1-yl)-N—((R)-1-((2,2,2-trifluoroethyl)sulfonyl)propan-2-yl)-2-(trifluoromethyl)benzamide], the mortality at 50 µg/cm2 in data set [1] and in data set [4] was 50 to 100% throughout. For the same molecule, in data set [2], the mortality at 200 ppm is 0 to 80%. The “YFM % Control (or Mortality) rating” value in data set [3] is on record as “B (More than 0-Less than 80)”.
